# Results published in ChEMBL document CHEMBL4033723, “Succinamide derivatives of melampomagnolide B and their anti-cancer activities” (2017).
# Legend:
# Format in all cases: functional
# [1] = Induction of apoptosis in human M9-ENL1 cells assessed as cell death after 24 hrs by Annexin V/PI or 7-AAD staining based flow cytometry; settings: M9-ENL1, 24 h, read-out: LC50 (the source's name)
# [2] = test system: SK-OV-3; assay: Growth inhibition of human SKOV3 cells after 48 hrs by sulforhodamine B assay; settings: SK-OV-3, 48 h
# [3] = test system: COLO 205; assay: Growth inhibition of human COLO205 cells after 48 hrs by sulforhodamine B assay; settings: COLO 205, 48 h
# [4] = test system: NCI-H522; assay: Growth inhibition of human NCI-H522 cells after 48 hrs by sulforhodamine B assay; settings: NCI-H522, 48 h
# [5] = Growth inhibition of human M9-ENL1 cells after 24 hrs by trypan blue assay; settings: M9-ENL1, 24 h
# [6] = test system: CCRF-CEM; assay: Growth inhibition of human CCRF-CEM cells after 48 hrs by sulforhodamine B assay
# [7] = test system: MCF7; assay: Growth inhibition of human MCF7 cells after 48 hrs by sulforhodamine B assay; settings: MCF7, 48 h
Compound,CC50 [1] [µM],further results
C=C1C(=O)O[C@H]2[C@H]1CC/C(COC(=O)CCC(=O)NCCCCCCCNC(=O)CCC(=O)OC/C1=C/CC[C@@]3(C)O[C@H]3[C@H]3OC(=O)C(=C)[C@@H]3CC1)=C\CC[C@@]1(C)O[C@@H]21,15,–
C=C1C(=O)O[C@H]2[C@H]1CC/C(COC(=O)CCC(=O)NCCCN1CCOCC1)=C\CC[C@@]1(C)O[C@@H]21,14,–
C=C1C(=O)O[C@H]2[C@H]1CC/C(COC(=O)CCC(=O)Nc1cccc(N)n1)=C\CC[C@@]1(C)O[C@@H]21,12,–
C=C1C(=O)O[C@H]2[C@H]1CC/C(COC(=O)CCC(=O)NCc1ccc(Cl)nc1)=C\CC[C@@]1(C)O[C@@H]21,14,GI50 [2]: 28 µM; GI50 [3]: 3.3 µM; GI50 [4]: 1.6 µM; GI50 [5]: 6.5 µM; GI50 [6]: 2.2 µM; GI50 [7]: 3.2 µM
C=C1C(=O)O[C@H]2[C@H]1CC/C(COC(=O)CCC(=O)NCCN1CCOCC1)=C\CC[C@@]1(C)O[C@@H]21,20,–
C=C1C(=O)O[C@H]2[C@H]1CC/C(COC(=O)CCC(=O)NCCCCNC(=O)CCC(=O)OC/C1=C/CC[C@@]3(C)O[C@H]3[C@H]3OC(=O)C(=C)[C@@H]3CC1)=C\CC[C@@]1(C)O[C@@H]21,19,–
C=C1C(=O)O[C@H]2[C@H]1CC/C(COC(=O)CCC(=O)NCCCn1ccnc1)=C\CC[C@@]1(C)O[C@@H]21,> 20,–
C=C1C(=O)O[C@H]2[C@H]1CC/C(COC(=O)CCC(=O)NCCCCCCNC(=O)CCC(=O)OC/C1=C/CC[C@@]3(C)O[C@H]3[C@H]3OC(=O)C(=C)[C@@H]3CC1)=C\CC[C@@]1(C)O[C@@H]21,21,–
C=C1C(=O)O[C@H]2[C@H]1CC/C(COC(=O)CCC(=O)Nc1nc(N)n[nH]1)=C\CC[C@@]1(C)O[C@@H]21,60,–
C=C1C(=O)O[C@H]2[C@H]1CC/C(COC(=O)CCC(=O)NCc1ccccn1)=C\CC[C@@]1(C)O[C@@H]21,14,–
C=C1C(=O)O[C@H]2[C@H]1CC/C(COC(=O)CCC(=O)NCCCCCCCCCCNC(=O)CCC(=O)OC/C1=C/CC[C@@]3(C)O[C@H]3[C@H]3OC(=O)C(=C)[C@@H]3CC1)=C\CC[C@@]1(C)O[C@@H]21,12,–
C=C1C(=O)O[C@H]2[C@H]1CC/C(COC(=O)CCC(=O)Nc1n[nH]c(SC)n1)=C\CC[C@@]1(C)O[C@@H]21,13,–
C=C1C(=O)O[C@H]2[C@H]1CC/C(COC(=O)CCC(=O)NCCCNC(=O)CCC(=O)OC/C1=C/CC[C@@]3(C)O[C@H]3[C@H]3OC(=O)C(=C)[C@@H]3CC1)=C\CC[C@@]1(C)O[C@@H]21,10,–
C=C1C(=O)O[C@H]2[C@H]1CC/C(COC(=O)CCC(=O)NCCc1ccccn1)=C\CC[C@@]1(C)O[C@@H]21,13.5,–
C=C1C(=O)O[C@H]2[C@H]1CC/C(COC(=O)CCC(=O)N1CCC(F)(F)CC1)=C\CC[C@@]1(C)O[C@@H]21,5.2,–
C=C1C(=O)O[C@H]2[C@H]1CC/C(COC(=O)CCC(=O)NCCCCCNC(=O)CCC(=O)OC/C1=C/CC[C@@]3(C)O[C@H]3[C@H]3OC(=O)C(=C)[C@@H]3CC1)=C\CC[C@@]1(C)O[C@@H]21,19,–
C=C1C(=O)O[C@H]2[C@H]1CC/C(COC(=O)CCC(=O)N1CCN(C)CC1)=C\CC[C@@]1(C)O[C@@H]21,8.1,–
C=C1C(=O)O[C@@H]2C3O[C@]3(C)CC/C=C(\C)CC[C@@H]12 (some centres undefined),7.5,–
